This passage reports GI50 and TGI results from PubChem BioAssay (NCI).

What all share (test): NCI anticancer screen, dose series, 48 h
The test system of experiment [1] is IGROV1 ovarian.
Experiment [2] relates to SK-OV-3 ovarian.
For experiment [3], the system named is OVCAR-3 ovarian.
Experiment [4] deals with RPMI-8226 leukemia.
The subject of experiment [5] is A549 NSCLC.
In experiment [6] the test system is NCI-H460 lung.
Experiment [7] concerns NCI-H226 lung.
Experiment [8] has as its system OVCAR-8 ovarian.
Experiment [9] relates to OVCAR-4 ovarian.
Experiment [10] has as its system NCI-H23 lung.

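Briefly, cells in 96-well plates were exposed to five compound concentrations for 48 h, and endpoints were estimated by linear interpolation. GI50: concentration for 50% inhibition of growth. TGI: total growth inhibition.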

Consider `CCN(CC)CCOc1ccc(/C(=C(\C)Cc2ccc(OC)cc2)c2ccc(O)cc2)cc1`, for which the GI50 in [1] was 2.98 µM; in experiment [2] it was 2.48 µM; in [3], 1.68 µM; in [4], 1.79 µM; in experiment [5], 1.83 µM; in experiment [6], 1.86 µM. In addition, the GI50 in [7] is 1.86 µM; in experiment [8], 2.12 µM; in [9] it was 2.95 µM; in [10] it was 1.98 µM. Further, the TGI in [1] was determined as 10.3 µM; in [2], 7.38 µM; in [3], 3.21 µM; in experiment [4], 3.88 µM; in [5], 3.56 µM; in experiment [6] it was 3.68 µM. Moreover, the TGI came to 4.26 µM in experiment [7], 5.14 µM in [8], 9.91 µM in experiment [9] and 5.08 µM in [10].
For the compound `CCCCNC(=O)CC1=C(C)/C(=C/c2[nH]c(-c3ccc[nH]3)cc2OC)N=C1C`, the GI50 in [1] was 3.23 µM; in [2] it was 2.76 µM; in experiment [3], 2.58 µM; in experiment [4], 1.95 µM; in [5], 3.6 µM; in experiment [6], 2.71 µM. Besides, the GI50 in experiment [7] was 2.74 µM; in experiment [8] it was 3.44 µM; in experiment [9] it was 2.12 µM; in experiment [10], 3.03 µM. Besides, the TGI came to 10.3 µM in experiment [1]; 8.96 µM in [2]; 9.77 µM in experiment [3]; 4.43 µM in [4]; 11.2 µM in experiment [5]; 11.7 µM in experiment [6]. Moreover, the TGI came to 8.77 µM in experiment [7], 11.1 µM in experiment [8], 19.2 µM in [9] and 21 µM in experiment [10].
`O=C(Nc1nc2ccc(OC(F)(F)F)cc2s1)c1ccc(F)cc1`: the GI50 in [1] is 3.89 µM; in experiment [2], 2.6 µM; in [3] it was 2.22 µM; in experiment [4], 2.52 µM; in experiment [5], 3.51 µM; in experiment [6], 3.02 µM. Moreover, the GI50 in [7] was 2.81 µM; in experiment [8] it was 4.22 µM; in experiment [9], 2.95 µM; in experiment [10] it was 2.9 µM. Besides, the TGI was more than 100 µM in experiment [1]; 8.44 µM in experiment [2]; 7.2 µM in experiment [3]; 8.08 µM in experiment [4]; more than 100 µM in experiment [5]; 20.7 µM in [6]. The TGI in [7] is more than 100 µM; in experiment [8], more than 100 µM; in experiment [9], more than 100 µM; in experiment [10], 8.73 µM.
`COc1cc(C2C=C(C)N=C3SC=C(C)N32)cc(OC)c1OC` (stereo not given): the GI50 in [1] was 2.22 µM; in [2], 2.91 µM; in experiment [3], 0.781 µM; in [4], 0.385 µM; in [5], 2.1 µM; in experiment [6] it was 2.11 µM. Also, the GI50 in experiment [7] was 1.88 µM; in experiment [8], 0.342 µM; in experiment [9], 3.99 µM; in experiment [10], 1.77 µM. Moreover, the TGI in experiment [1] came out at 7.3 µM; in [2], 8.54 µM; in experiment [3] it was 7.66 µM; in experiment [4], 2.57 µM; in [5], 6.56 µM; in experiment [6] it was 7.33 µM. Moreover, the TGI is 5.81 µM in experiment [7], 10.1 µM in experiment [8], more than 100 µM in experiment [9] and 5.41 µM in experiment [10].
In the case of `Oc1ccc(I)c2cccnc12`, the TGI in [1] was 39.3 µM; in experiment [2], 49.5 µM; in experiment [3], more than 100 µM; in experiment [4] it was 62.9 µM; in experiment [5], more than 100 µM; in experiment [6], 20.2 µM. The TGI was 41.8 µM in experiment [7], more than 100 µM in experiment [8], more than 100 µM in [9] and 55.2 µM in experiment [10].
Regarding `Cc1c(C(=O)/C=C/c2ccc([N+](=O)[O-])cc2)[n+](=O)c2ccccc2n1[O-]`, the TGI in experiment [1], in experiment [2], in [3], in experiment [4], in experiment [5] and in experiment [6] was more than 100 µM in each case. The TGI was more than 100 µM in experiment [7], more than 100 µM in [8], more than 100 µM in experiment [9] and 86.7 µM in experiment [10].
`COC1(OC)CCC2(C)OC(c3ccccc3)C1O2` (stereo not given): the TGI in [1], in experiment [2], in experiment [3], in experiment [4], in experiment [5] and in experiment [6] was more than 100 µM each time. The TGI in experiment [7], in experiment [8], in experiment [9] and in [10] was more than 100 µM each time.
`CS(=O)(=O)ON1C(=O)c2ccc(N)cc2C1=O`: the TGI in experiment [1] was more than 100 µM; in experiment [2] it was more than 100 µM; in experiment [3], more than 100 µM; in [4], 61.5 µM; in experiment [5], more than 100 µM; in experiment [6] it was more than 100 µM. Also, the TGI in experiment [7] is more than 100 µM; in [8], 60.8 µM; in experiment [9], more than 100 µM; in [10] it was more than 100 µM.
Turning to `O=C1NC(=NCCc2ccccc2F)S/C1=C\c1ccc2ncccc2c1`, the GI50 in experiment [1] is 7.02 µM; in experiment [2], 7.82 µM; in experiment [3] it was 7.35 µM; in experiment [4] it was 4.18 µM; in experiment [5], 5.39 µM; in [6] it was 6.57 µM. Further, the GI50 in [7] was 7.59 µM; in experiment [8], 9.65 µM; in [9], 6.45 µM; in experiment [10], 6.12 µM. Also, the TGI in [1] was more than 25 µM; in experiment [2], more than 25 µM; in experiment [3], 24.2 µM; in [4], 24.9 µM; in experiment [5], more than 25 µM; in experiment [6], more than 25 µM. Moreover, the TGI in experiment [7] is more than 25 µM; in experiment [8], more than 25 µM; in [9] it was more than 20.6 µM; in experiment [10], more than 25 µM.
